Results from US9642922B2, “Caspase-triggered nano-aggregation probes and methods of use” (The Board of Trustees of the Leland Stanford Junior …, priority 2013, dated 2017).
Marks after values point to notes of the source that are not given here.

Assays:
Caspase-3 [1] = biological target: T1, Caspase-3 (Mus musculus, UniProt P70677); details: cited from earlier work
T1 sequence (P70677 29-175 limits assumed): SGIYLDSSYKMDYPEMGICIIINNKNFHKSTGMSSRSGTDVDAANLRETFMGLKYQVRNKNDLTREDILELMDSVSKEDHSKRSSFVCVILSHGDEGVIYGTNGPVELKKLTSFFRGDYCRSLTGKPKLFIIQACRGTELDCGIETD
T1 sequence (P70677 176-277 limits assumed): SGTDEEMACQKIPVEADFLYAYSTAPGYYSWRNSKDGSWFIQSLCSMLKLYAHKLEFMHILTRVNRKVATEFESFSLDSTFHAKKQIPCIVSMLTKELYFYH

caspase-3 [2] = biological target: T2, caspase-3 (Homo sapiens, UniProt P42574); assay: HPLC assay of caspase-3-triggered macrocyclization of C-SNAF; type: biochemical; design: purchased Sigma; host or cells: E. coli; details: same conditions as C-SNAF; D-ctrl after 24 h
T2 sequence (P42574 29-175 limits assumed): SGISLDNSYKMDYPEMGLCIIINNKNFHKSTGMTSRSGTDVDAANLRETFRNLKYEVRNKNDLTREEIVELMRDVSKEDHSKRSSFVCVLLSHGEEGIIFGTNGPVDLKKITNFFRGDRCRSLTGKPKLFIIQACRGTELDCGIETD
T2 sequence (P42574 176-277 limits assumed): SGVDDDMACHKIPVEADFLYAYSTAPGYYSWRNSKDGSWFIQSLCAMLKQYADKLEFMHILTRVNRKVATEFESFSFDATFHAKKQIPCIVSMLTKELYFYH
Procedure: The progression of caspase-3-triggered macrocyclization of C-SNAF to form C-SNAF-cycl in solution was monitored using high-performance liquid chromatography (HPLC) following incubation of the probe (25 μM) with recombinant human caspase-3 (4.9×10^−[…]).
Caspase (human, recombinant from E. coli) assays were performed for caspase-3 (4.9×10^−3 U; 7.35×10^−4 mg, Sigma), −7 (18.3 U; 7.35×10^−4 mg, Calbiochem), and −9 (0.3 U; 7.35×10^−4 mg, Calbiochem). All caspase assays were conducted in caspase buffer with 50 mM HEPES, 100 mM NaCl, 1 mM EDTA, 10 mM TCEP, 10% glycerol, and 0.1% CHAPS at pH 7.4. Cathepsin B (human liver; 0.27 U; 7.35×10^−4 mg, Calbiochem) and Legumain (human, recombinant from mouse myeloma cell line; >250 pmol/min/μg; 7.35×10^−4 mg, R&D Systems) were conducted in reaction buffer with 50 mM sodium acetate, 50 mM NaCl, 0.5 mM EDTA and 10 mM TCEP at pH 5.5. C-SNAF was diluted in the respective enzyme reaction buffer (25 μM, 1 mL) and remained at room temperature for 10 min, to which was then added the respective enzymes. Reactions were performed at 37° C., and monitored by HPLC hourly. The percentage conversion of the reaction was calculated based on the percentage of peak area of C-SNAF-cycl in the HPLC trace at 675 nm UV detection, which indicated the efficacy of enzyme cleavage of C-SNAF.

[3] = tested on: STS-induced apoptotic HeLa cells; assay: Flow cytometry of STS-induced apoptotic HeLa cells labeled with probes; type: cell-based, human; details: 2 μM probe, compared with C-SNAF
Procedure: Approximately 10^5 HeLa cells in 1 mL DMEM medium were seeded onto 12-well plates. […] For the inhibitor blocking experiment, the STS-treated cells were first incubated with the caspase inhibitor Z-VAD-fmk (50 μM, R&D Systems) for 30 min, and then 2 μM C-SNAF was added. All cells incubations were 24 h, followed by staining with FLICA (FAM) after trypsinization. After washing with PBS (1×) three times, the cell pellets were resuspended in 300 μL PBS and applied for flow cytometry analysis using the FITC and Cy5.5 channels. The cell number for each flow cytometry analysis was approximately 5000 to 10000, and the data was processed using FlowJo software.

subcutaneous HeLa tumors = assay: In vivo fluorescence imaging of DOX-treated HeLa tumor-bearing mice; design: species or system mouse
Procedure: C-SNAF or either of the control probes (5 nmol) was administered intravenously to tumor-bearing mice and whole animal fluorescence was longitudinally monitored using a Maestro fluorescence imager.
To establish tumors in 6-week-old female nu/nu mice, 2×10^6 HeLa cells suspended in 50 μL of a 50% v/v mixture of Matrigel in supplemented DMEM (10% FBS, 1% penstrep) were injected subcutaneously in the shoulders of the mouse. Tumors were grown until a single aspect was 0.7 to 0.9 cm (approximately 10-15 days), and then treatment consisting of 8 mg/kg DOX or saline was initiated. Treatments were administered intravenously once every 4 d for a total of three times. Total mouse body weight and tumor size (width and length by caliper) was measured every other day. Tumor volumes were calculated assuming ellipsoid shape with the formula (l×w^2)/2.
Two days following the final treatment, 5 nmol probe in saline was injected intravenously and fluorescence imaging began immediately on a Maestro hyperspectral fluorescent imaging system (PerkinElmer, Mass., USA) using a 635±25 nm excitation filter and a 675 nm long-pass emission filter, with images acquired from 670 to 900 nm. Tissue autofluorescence and Cy5.5 fluorescence were deconvolved, and tumor fluorescence intensity was quantified by region of interest measurement using Nuance v.3.0.1.2 software (Perkin Elmer, Mass., USA).

apoptotic HeLa cells = assay: Epifluorescence microscopy of apoptotic HeLa cells labeled with probes; type: cell-based, human; details: microscopy, 2 μM probe
Procedure: After removal of the medium, the cells were incubated with C-SNAF, L-ctrl, or D-ctrl at 2 μM for 24 h. Some cells were first incubated with caspase inhibitor (Z-VAD-fmk, 50 μM) for 30 min, followed by incubating with 2 μM C-SNAF for 24 h. The cells were carefully washed with PBS (1×) three times, and stained with Hoechst 33342 (2 μM) at 37° C. for 30 min. After rinses with PBS (1×) several times, the medium was replaced and the fluorescence images were acquired with DAPI and Cy5.5 filters. The images were processed using the standard CRi Nuance software, analyzed using Image J software package (NIH), and presented at the same intensity scale for comparison.
HeLa cells in #1.5 borosilicate 8-well chambered coverslips (Nunc) were either incubated with C-SNAF (2 μM) alone or co-incubated with DOX (1, 2, and 5 μM) and 2 μM C-SNAF, 2 μM C-SNAF together with caspase inhibitor (Z-VAD-fmk, 50 μM), or control probes D-ctrl and L-ctrl at 2 μM for 24 h. Then the medium was removed, the cells were carefully washed with PBS (1×) three times, and stained with nuclear binding probe Hoechst 33342 (2 μM) at 37° C. for 30 min. After several rinses with PBS (1×), the medium was replaced and the fluorescence images were acquired with DAPI and […] filters.

PS binding = details: cited from earlier work

## O=C1C(=O)N(Cc2cn(CC[18F])nn2)c2ccc(S(=O)(=O)N3CCCC3COc3ccc(F)cc3F)cc21 (stereo not drawn) [[^18F]ICMT-11]
Caspase-3 [1]; Tumor/blood
  Target/Background (Tumor/blood): 1.2^c
Caspase-3 [1]; mouse, in vivo
  time course of uptake at the apoptotic tumors: decreased over the time after injection
Caspase-3 [1]; treated and untreated group in different animal
  Treated/Untreated: 1.5^d

## CC[N+]1=C(C=CC=CC=C2N(CCCCCC(=O)NCCCCC(NC(=O)C(CSC)NC(=O)C(CC(=O)O)NC(=O)C(NC(=O)C(CCC(=O)O)NC(=O)C(CC(=O)O)NC(C)=O)C(C)C)C(=O)Nc3ccc4nc(C5=NC(C(=O)NCCCOc6ccc7ncccc7c6)CS5)sc4c3)c3ccc4c(S(=O)(=O)O)cc(S(=O)(=O)O)cc4c3C2(C)C)C(C)(C)c2c1ccc1c(S(=O)(=O)O)cc(S(=O)(=O)[O-])cc21 [D-ctrl]
caspase-3 [2]
  products observed after incubation with caspase-3: no new products were observed
[3]
  fluorescent intensity of apoptotic cells incubated with control probes: much lower fluorescent intensity
Subcutaneous HeLa tumors; 3×DOX-treated mice, 1 h after probe
  correlation (r) of maximum tumor fluorescence with maximum tumor size change: no significant correlation
Subcutaneous HeLa tumors; 4 h after probe administration
  average signal enhancement between DOX- and saline-treated tumors: −12%
Subcutaneous HeLa tumors; DOX-treated mice, 1 h
  tumor fluorescence lower than that of C-SNAF: 10%
Apoptotic HeLa cells
  fluorescence of apoptotic cells compared to C-SNAF: relatively weaker fluorescence

B1: [^18F]Annexin V: known apoptosis PET tracer, PS binding (protein, UniProt P08758 2-320, looked up)
Annexin A5: AQVLRGTVTDFPGFDERADAETLRKAMKGLGTDEESILTLLTSRSNAQRQEISAAFKTLFGRDLLDDLKSELTGKFEKLIVALMKPSRLYDAYELKHALKGAGTNEKVLTEIIASRTPEELRAIKQVYEEEYGSSLEDDVVGDTSGYYQRMLVVLLQANRDPDAGIDEAQVEQDAQALFQAGELKWGTDEEKFITIFGTRSVSHLRKVFDKYMTISGFQIEETIDRETSGNLEQLLLAVVKSIRSIPAYLAETLYYAMKGAGTDDHTLIRVMVSRSEIDLFNIRKEFRKNFATSLYSMIKGDTSGDYKKALLLLCGEDD
modifications: 18F radiolabel
PS binding; PET imaging
  % ID/g at target site: 1.56 ± 0.2 % ID/g
PS binding; maximum value at the apoptotic tissue
  Target/Background: 3.4
PS binding; pre and post treatment in same animal
  Treated/Untreated: 1.6^b
